The target in experiment [1] is T1, full length Keap1 protein / full length NRF2 protein (Homo sapiens, UniProt Q14145).
T1 construct: full length NRF2 protein and full length Keap1 protein (Keap1 exists a dimer) are used; His
As to the kind of experiment: NRF2-Keap1 TR-FRET Assay. The class given is binding. Particulars: 25 nM Keap1-FlagHis and 50 nM biotin-NRF2 added. Put shortly:
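Displacement of biotinylated full-length NRF2 from full-length Keap1 read by Eu/APC TR-FRET (665/615 nm) after 1 h detection at RT. Compound, 3-fold series, first incubated with Keap1 at 37 °C for 2.25 h, NRF2 then added at 4 °C for 1.25 h; pIC50 by four-parameter equation.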
For orientation: TR-FRET usually uses a lanthanide donor and a delayed reading to cut background.

Experiment [2] has as its target T1, full length Keap1 protein / full length NRF2 protein. As to the kind of experiment: NRF2-Keap1 TR-FRET Low Protein Assay. The class given is binding. Particulars: 1.25 nM Keap1 FlagHis and 2.5 nM biotin-NRF2 added. Put shortly:
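Flag-tagged full-length Keap1 was preincubated with compound (3-fold series) for 2.25 h at 37 °C in Tris pH 8.0/MgCl2/NaCl/BSA/DTT/CHAPS. Biotin-Avi-NRF2 (added at 2.5 nM) was then bound for 1.25 h at 4 °C. Eu-streptavidin/anti-Flag-APC TR-FRET (665/615 nm) was read after 1 h at RT, and pIC50 came from a four-parameter fit.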

T1 sequence (Q14145 whole entry): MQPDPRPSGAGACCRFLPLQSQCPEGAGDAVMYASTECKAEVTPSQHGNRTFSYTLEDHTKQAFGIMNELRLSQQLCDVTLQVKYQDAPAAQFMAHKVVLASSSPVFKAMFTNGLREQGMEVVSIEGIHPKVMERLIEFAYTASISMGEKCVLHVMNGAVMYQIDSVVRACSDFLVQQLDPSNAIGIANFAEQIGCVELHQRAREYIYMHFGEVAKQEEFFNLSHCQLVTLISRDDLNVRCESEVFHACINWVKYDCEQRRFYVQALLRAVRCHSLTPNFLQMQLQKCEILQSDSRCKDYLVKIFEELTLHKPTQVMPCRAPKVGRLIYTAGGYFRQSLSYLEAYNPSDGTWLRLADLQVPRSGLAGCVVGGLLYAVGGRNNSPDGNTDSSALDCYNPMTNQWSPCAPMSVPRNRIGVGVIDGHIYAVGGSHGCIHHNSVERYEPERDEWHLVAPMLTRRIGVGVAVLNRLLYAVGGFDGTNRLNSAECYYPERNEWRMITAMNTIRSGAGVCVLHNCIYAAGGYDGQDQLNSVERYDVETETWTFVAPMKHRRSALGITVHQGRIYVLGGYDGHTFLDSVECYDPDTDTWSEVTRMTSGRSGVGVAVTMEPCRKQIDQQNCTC

In general, IC50 refers to the concentration needed to halve the response being measured. The low end stands for inhibition by little substance, the high end for a need for much substance. As for `CC(Oc1cccc(-c2cccc(-n3ncc(C(=O)O)c3[C@H]3C[C@@H]3c3cn(C)nn3)c2)c1)C1CCCCCC1` (mixture of isomers) [Example 230, 1-(3′-(1-Cycloheptylethoxy)-[1,1′-biphenyl]-3-yl)-5-((1,2-trans)-2-(1-methyl-1H-1,2,3-triazol-4-yl)cyclopropyl)-1H-pyrazole-4-carboxylic acid], the concentration for half-maximal inhibition (IC50) in experiment [1] and in experiment [2] was 10 to 100 nM in each case.

Turning to `Cn1cc([C@H]2C[C@@H]2c2c(C(=O)O)cnn2-c2cccc(-c3cccc(OCc4ccc(-c5ccccc5)cc4)c3)c2)nn1` (racemic) [Example 237, 1-(3′-([1,1′-Biphenyl]-4-ylmethoxy)-[1,1′-biphenyl]-3-yl)-5-((1,2-trans)-2-(1-methyl-1H-1,2,3-triazol-4-yl)cyclopropyl)-1H-pyrazole-4-carboxylic Acid], the IC50 in experiment [1] lay in the range of 1000 to 10000 nM; in experiment [2], 100 to 1000 nM.

On to `Cn1cc([C@H]2C[C@@H]2c2c(C(=O)O)cnn2-c2cccc(-c3cccc(OCc4cccc(-c5ccccc5)c4)c3)c2)nn1` (racemic) [Example 238, 1-(3′-([1,1′-Biphenyl]-3-ylmethoxy)-[1,1′-biphenyl]-3-yl)-5-((1,2- trans)-2-(1-methyl-1H-1,2,3-triazol-4-yl)cyclopropyl)-1H-pyrazole-4-carboxylic acid], for which the IC50 in experiment [1] is 1000 to 10000 nM; in experiment [2], 100 to 1000 nM.

Regarding `CC(Oc1cccc(-c2cccc(-n3ncc(C(=O)O)c3[C@H]3C[C@@H]3c3cn(C)nn3)c2)c1)c1cccc(-c2ccccc2)c1` (mixture of isomers) [Example 239, 1-(3′-(1-([1,1′-Biphenyl]-3-yl)ethoxy)-[1,1′-biphenyl]-3-yl)-5-((1,2-trans)-2-(1-methyl-1H-1,2,3-triazol-4-yl)cyclopropyl)-1H-pyrazole-4-carboxylic Acid], the IC50 in experiment [1] and in experiment [2] was 100 to 1000 nM throughout.

Regarding `CC(Oc1cccc(-c2cccc(-n3ncc(C(=O)O)c3[C@H]3C[C@@H]3c3cn(C)nn3)c2)c1)c1ccc(-c2ccccc2)cc1` (mixture of isomers) [Example 240, 1-(3′-(1-([1,1′-Biphenyl]-4-yl)ethoxy)-[1,1′-biphenyl]-3-yl)-5-((1,2- trans)-2-(1-methyl-1H-1,2,3-triazol-4-yl)cyclopropyl)-1H-pyrazole-4-carboxylic acid], the IC50 in experiment [1] lay within 1000 to 10000 nM; in experiment [2], 100 to 1000 nM.

`Cn1cc([C@@H]2C[C@H]2c2c(C(=O)O)cnn2-c2cccc(-c3cccc(OCCC4CCCCC4)c3)c2)nn1` (racemic) [Example 245, 1-(3′-(2-cyclohexylethoxy)-[1,1′-biphenyl]-3-yl)-5-(trans-2-(1-methyl-1H-1,2,3-triazol-4-yl)cyclopropyl)-1H-pyrazole-4-carboxylic Acid]: the IC50 in experiment [1] lay in the range of 100 to 1000 nM; in experiment [2], 10 to 100 nM.

As for `Cn1cc([C@@H]2C[C@H]2c2c(C(=O)O)cnn2-c2cccc(-c3cncc(OCC4CCCCC4)c3)c2)nn1` (racemic) [Example 246, 1-(3-(5-(Cyclohexylmethoxy)pyridin-3-yl)phenyl)-5-(trans-2-(1-methyl-1H-1,2,3-triazol-4-yl)cyclopropyl)-1H-pyrazole-4-carboxylic Acid], the IC50 was in the range of 1000 to 10000 nM in experiment [1] and 100 to 1000 nM in experiment [2].

Turning to `CCC[C@@H]1CCCCN1C(=O)c1cccc(-c2cc(C)cc(-n3ncc(C(=O)O)c3[C@@H]3C[C@H]3c3cn(C)nn3)c2)c1` (single isomer, unassigned) [Example 155], the figures for the IC50 in experiment [1] and in experiment [2] were 10 to 100 nM and less than 10 nM, respectively.

In the case of `CC(Oc1cccc(-c2cccc(-n3ncc(C(=O)O)c3[C@H]3C[C@@H]3c3cn(C)nn3)c2)c1)C1CCCCC1` (single isomer, unassigned) [Example 191], the IC50 in experiment [1] and in experiment [2] was 100 to 1000 nM throughout.

As to `Cn1cc([C@H]2C[C@@H]2c2c(C(=O)O)cnn2-c2cccc(-c3cccc(-n4ncc5c4C(C)(C)CC5)c3)c2)nn1` (stereo in doubt) [Example 208, 1-(3′-(6,6-Dimethyl-5,6-dihydrocyclopenta[c]pyrazol-1(4H)-yl)-[1,1′-biphenyl]-3-yl)-5-((1S,2S)-2-(1-methyl-1H-1,2,3-triazol-4-yl)cyclopropyl)-1H-pyrazole-4-carboxylic Acid], the IC50 is 10 to 100 nM in experiment [1] and less than 10 nM in experiment [2].

Take `O=C(O)c1cnn(-c2cccc(-c3cccc(C(=O)N(CC4CCCC4)CC4CC4)c3F)c2)c1C1CC1` [Example 14, 1-(3-{3-[(Cyclopentylmethyl)(cyclopropylmethyl)carbamoyl]-2-fluorophenyl}phenyl)-5-cyclopropyl-1H-pyrazole-4-carboxylic Acid]: the half-maximal inhibitory concentration (IC50) in experiment [1] is 100 to 1000 nM; in experiment [2], 10 to 100 nM.

On to `CCCC1CCCCN1C(=O)c1cccc(-c2cccc(-n3ncc(C(=O)O)c3C3CC3)c2)c1F` (stereo not shown) [Example 17, 5-Cyclopropyl-1-{3-[2-fluoro-3-(2-propylpiperidine-1-carbonyl)phenyl]phenyl}-1H-pyrazole-4-carboxylic Acid], for which the IC50 in experiment [1] lay within 100 to 1000 nM; in experiment [2] it was 10 to 100 nM.

On to `C[C@@H]1CCC[C@H](C)N1C(=O)c1cccc(-c2cccc(-n3ncc(C(=O)O)c3C3CC3)c2)c1F` [Example 21, 5-Cyclopropyl-1-(3-{3-[(2R,6S)-2,6-dimethylpiperidine-1-carbonyl]-2-fluorophenyl}phenyl)-1H-pyrazole-4-carboxylic Acid], for which the IC50 in experiment [1] and in experiment [2] was 100 to 1000 nM throughout.

Consider `CCCC1CCCCN1C(=O)c1cccc(-c2cccc(-n3ncc(C(=O)O)c3C3CC3c3cccnn3)c2)c1` (stereo not shown) [Example 41, 1-[3′-(2-Propyl-piperidine-1-carbonyl)-biphenyl-3-yl]-5-(2-pyridazin-3-yl-cyclopropyl)-1H-pyrazole-4-carboxylic Acid], for which the values for the IC50 in experiment [1] and in experiment [2] were 10 to 100 nM and less than 10 nM, respectively.

With `CCCC1CCCCN1C(=O)c1cccc(-c2cccc(-n3ncc(C(=O)O)c3C3CC3c3cn(C)nn3)c2)c1` (stereo not shown) [Example 42, 5-[2-(1-methyl-1H-1,2,3-triazol-4-yl)cyclopropyl]-1-{3-[3-(2-propylpiperidine-1-carbonyl)phenyl]phenyl}-1H-pyrazole-4-carboxylic Acid], the IC50 in experiment [1] was 10 to 100 nM; in experiment [2], less than 10 nM.

Consider `CCC[C@@H]1CCCCN1C(=O)c1cccc(-c2cccc(-n3ncc(C(=O)O)c3[C@H]3C[C@@H]3c3cn(C)nn3)c2)c1` [Example 51g, 5-[(1S,2S)-2-(1-methyl-1H-1,2,3-triazol-4-yl)cyclopropyl]-1-(3-{3-[(2R)-2-propylpiperidine-1-carbonyl]phenyl}phenyl)-1H-pyrazole-4-carboxylic Acid], for which the IC50 in experiment [1] lay within 1000 to 10000 nM; in experiment [2] it was 100 to 1000 nM.

In the case of `CCC[C@@H]1CCCCN1C(=O)c1cccc(-c2cccc(-n3ncc(C(=O)O)c3[C@@H]3C[C@H]3c3cn(C)nn3)c2)c1` [Example 51h, 5-[(1R,2R)-2-(1-methyl-1H-1,2,3-triazol-4-yl)cyclopropyl]-1-(3-{3-[(2R)-2-propylpiperidine-1-carbonyl]phenyl}phenyl)-1H-pyrazole-4-carboxylic Acid], the IC50 in experiment [1] was 10 to 100 nM; in experiment [2], less than 10 nM.

As for `CCC[C@@H]1CCCCN1C(=O)c1cccc(-c2cccc(-n3ncc(C(=O)O)c3C3CC3c3cn(C)nn3)c2)c1F` (stereo partly drawn) [Example 57, 1-(2′-Fluoro-3′-((R)-2-propylpiperidine-1-carbonyl)-[1,1′-biphenyl]-3-yl)-5-(2-(1-methyl-1H-1,2,3-triazol-4-yl)cyclopropyl)-1H-pyrazole-4-carboxylic Acid], the half-inhibitory concentration (IC50) in experiment [1] was 10 to 100 nM; in experiment [2] it was less than 10 nM.

Take `O=C(O)c1cnn(-c2cccc(-c3cccc(-n4ncc5c4CCC5)c3)c2)c1C1CC1` [Example 61, 5-Cyclopropyl-1-(3′-(5,6-dihydrocyclopenta[c]pyrazol-1(4H)-yl)-[1,1′-biphenyl]-3-yl)-1H-pyrazole-4-carboxylic Acid]: the IC50 in experiment [1] and in experiment [2] was 1000 to 10000 nM in each case.

As for `O=C(O)c1cnn(-c2cccc(-c3cccc(-n4ncc5c4CCCC5)c3)c2)c1C1CC1` [Example 62, 5-cyclopropyl-1-(3′-(4,5,6,7-tetrahydro-1H-indazol-1-yl)-[1,1′-biphenyl]-3-yl)-1H-pyrazole-4-carboxylic Acid], the IC50 in experiment [1] was 1000 to 10000 nM; in experiment [2] it was 100 to 1000 nM.

Regarding `CCC[C@@H]1CCCCN1C(=O)c1cccc(-c2cccc(-n3ncc(C(=O)O)c3C3CC3(F)F)c2)c1` (stereo partly drawn) [Example 67, 5-(2,2-Difluorocyclopropyl)-1-(3′-((R)-2-propylpiperidine-1-carbonyl)-[1,1′-biphenyl]-3-yl)-1H-pyrazole-4-carboxylic Acid], the results for the IC50 in experiment [1] and in experiment [2] were 100 to 1000 nM and 10 to 100 nM, respectively.

Consider `CC[C@@H]1CN(Cc2cccc(-c3cccc(-n4ncc(C(=O)O)c4C4CC4c4cn(C)nn4)c3)c2)Cc2ccccc2O1` (stereo partly drawn) [Example 129, 1-(3′-(((R)-2-ethyl-2,3-dihydrobenzo[f][1,4]oxazepin-4(5H)-yl)methyl)-[1,1′-biphenyl]-3-yl)-5-(2-(1-methyl-1H-1,2,3-triazol-4-yl)cyclopropyl)-1H-pyrazole-4-carboxylic Acid], for which the values for the half-maximal inhibitory concentration (IC50) in experiment [1] and in experiment [2] were 10 to 100 nM and less than 10 nM, respectively.

With `CCC[C@@H]1CCCCN1C(=O)c1cccc(-c2cc(C)cc(-n3ncc(C(=O)O)c3C3CC3c3cn(C)nn3)c2)c1` (stereo partly drawn) [Example 154, 5-(2-(1-Methyl-1H-1,2,3-triazol-4-yl)cyclopropyl)-1-(5-methyl-3′-((R)-2-propylpiperidine-1-carbonyl)-[1,1′-biphenyl]-3-yl)-1H-pyrazole-4-carboxylic Acid], the IC50 in experiment [1] is 10 to 100 nM; in experiment [2] it was less than 10 nM.
